Reference: patent publication US11130750B2, “Calcium channel inhibitors” (Cavion, Inc., priority 2017, dated 2021)

Experiments:
Format in all cases: cell-based
[1] = tested on: Human Glioma cancer cell line U251; experiment: Cell Proliferation Assay by CCK-8 Reagent; conditions: Homo sapiens, U-251, 72 h, U251 cells, 72 hours incubation, CCK-8, % viability vs vehicle control
Procedure: Human Glioma cancer cell line U251 was maintained in DMEM (Gibco, Cat #10569-10) supplemented with 10% fetal bovine serum inactivated at 56° C. (Gibco, Cat #10082-147), 100 U/mL penicillin, and 100 μg/mL streptomycin (Gibco, Cat #15140-122) at 37° C. and 1% MEM non-essential amino acid (Sigma, Cat #M7145) in a humid atmosphere containing 5% CO2. The cells were seeded at 2.5×10^3 cells/well in a 96 well plate (BD falcon, Cat #353072) with 200 pt volume/well and kept in 37° C./5% CO2 incubator for 0/N incubation. The seeding density was optimized previously based on growth curve. On the next day, plated cells were incubated with each test compounds at eight different concentrations (100, 50, 25, 12.5, 6.25, 3.125, 1.5 and 0.78) in triplicates. DMSO was used as a Vehicle control and Culture medium was used as blank control for the assay in each plate. The percentage of DMSO was kept uniform across the plate as <1%. The compound treated cells were incubated in 37° C./5% CO2 incubator for 72 hours. After incubation period, […] CCK-8 reagent (Dojindo, Cat #CK04) was added in all the wells and plate was kept in 37° C./5% CO2 incubator for 3 hours. After CCK-8 incubation, absorbance was measured @ 450 nm using Spectrophotometer (BMG, Omega Polar Star). % Viability values at each concentration were calculated with respect to Vehicle control and EC50 values were calculated using graph pad prism software and are shown in Table A.

Cav3.2 = Cav3.2 (Homo sapiens (Human), UniProt O95180); experiment: Whole-cell voltage clamp recording, HEK293 cells expressing T-type channel Cav3.2; conditions: holding potential −100 mV, depolarized to −30 mV for 100 ms, room temperature
Procedure: (§1) Whole-cell voltage clamp recordings were performed on cultured HEK293 cells expressing T-type channels (encoded by Cav3.1, Cav3.2, or Cav3.3 channels). All experiments were performed at room temperature. Whole-cell currents were recorded using a MultiClamp 700B amplifier and analyzed offline with pCLAMP10.4 software (Molecular Devices, LLC, Sunnyvale Calif., USA). […] Test compounds were usually applied via a rapid solution exchange system with 8 fine polyplastic tubings glued in a holder in parallel and located closely to the recorded cells. The current responses were normalized to the control, percent inhibition was calculated and sigmoidal dose-response curettes we're generated using XLFIT (IDBS, Surrey, UK) or Prism (GraphPad Software, LA Jola, Calif., US) to calculate IC50 values and Hill slopes using the following equation Y=Bottom+(Top−Bottom)/1+10{circumflex over (()}(Log EC50−X)−HillsSlope)). IC50 values are given in micromolar units.

Cav3.1 = Cav3.1 (Homo sapiens (Human), UniProt O43497); experiment: Whole-cell voltage clamp recording, HEK293 cells expressing T-type channel Cav3.1; conditions: holding potential −100 mV, depolarized to −30 mV for 100 ms, room temperature
Procedure: as §1

Cav3.3 = Cav3.3 (Homo sapiens (Human), UniProt Q9P0X4); experiment: Whole-cell voltage clamp recording, HEK293 cells expressing T-type channel Cav3.3; conditions: holding potential −100 mV, depolarized to −30 mV for 100 ms, room temperature
Procedure: as §1

Cav3.1, sequence (O43497 whole entry): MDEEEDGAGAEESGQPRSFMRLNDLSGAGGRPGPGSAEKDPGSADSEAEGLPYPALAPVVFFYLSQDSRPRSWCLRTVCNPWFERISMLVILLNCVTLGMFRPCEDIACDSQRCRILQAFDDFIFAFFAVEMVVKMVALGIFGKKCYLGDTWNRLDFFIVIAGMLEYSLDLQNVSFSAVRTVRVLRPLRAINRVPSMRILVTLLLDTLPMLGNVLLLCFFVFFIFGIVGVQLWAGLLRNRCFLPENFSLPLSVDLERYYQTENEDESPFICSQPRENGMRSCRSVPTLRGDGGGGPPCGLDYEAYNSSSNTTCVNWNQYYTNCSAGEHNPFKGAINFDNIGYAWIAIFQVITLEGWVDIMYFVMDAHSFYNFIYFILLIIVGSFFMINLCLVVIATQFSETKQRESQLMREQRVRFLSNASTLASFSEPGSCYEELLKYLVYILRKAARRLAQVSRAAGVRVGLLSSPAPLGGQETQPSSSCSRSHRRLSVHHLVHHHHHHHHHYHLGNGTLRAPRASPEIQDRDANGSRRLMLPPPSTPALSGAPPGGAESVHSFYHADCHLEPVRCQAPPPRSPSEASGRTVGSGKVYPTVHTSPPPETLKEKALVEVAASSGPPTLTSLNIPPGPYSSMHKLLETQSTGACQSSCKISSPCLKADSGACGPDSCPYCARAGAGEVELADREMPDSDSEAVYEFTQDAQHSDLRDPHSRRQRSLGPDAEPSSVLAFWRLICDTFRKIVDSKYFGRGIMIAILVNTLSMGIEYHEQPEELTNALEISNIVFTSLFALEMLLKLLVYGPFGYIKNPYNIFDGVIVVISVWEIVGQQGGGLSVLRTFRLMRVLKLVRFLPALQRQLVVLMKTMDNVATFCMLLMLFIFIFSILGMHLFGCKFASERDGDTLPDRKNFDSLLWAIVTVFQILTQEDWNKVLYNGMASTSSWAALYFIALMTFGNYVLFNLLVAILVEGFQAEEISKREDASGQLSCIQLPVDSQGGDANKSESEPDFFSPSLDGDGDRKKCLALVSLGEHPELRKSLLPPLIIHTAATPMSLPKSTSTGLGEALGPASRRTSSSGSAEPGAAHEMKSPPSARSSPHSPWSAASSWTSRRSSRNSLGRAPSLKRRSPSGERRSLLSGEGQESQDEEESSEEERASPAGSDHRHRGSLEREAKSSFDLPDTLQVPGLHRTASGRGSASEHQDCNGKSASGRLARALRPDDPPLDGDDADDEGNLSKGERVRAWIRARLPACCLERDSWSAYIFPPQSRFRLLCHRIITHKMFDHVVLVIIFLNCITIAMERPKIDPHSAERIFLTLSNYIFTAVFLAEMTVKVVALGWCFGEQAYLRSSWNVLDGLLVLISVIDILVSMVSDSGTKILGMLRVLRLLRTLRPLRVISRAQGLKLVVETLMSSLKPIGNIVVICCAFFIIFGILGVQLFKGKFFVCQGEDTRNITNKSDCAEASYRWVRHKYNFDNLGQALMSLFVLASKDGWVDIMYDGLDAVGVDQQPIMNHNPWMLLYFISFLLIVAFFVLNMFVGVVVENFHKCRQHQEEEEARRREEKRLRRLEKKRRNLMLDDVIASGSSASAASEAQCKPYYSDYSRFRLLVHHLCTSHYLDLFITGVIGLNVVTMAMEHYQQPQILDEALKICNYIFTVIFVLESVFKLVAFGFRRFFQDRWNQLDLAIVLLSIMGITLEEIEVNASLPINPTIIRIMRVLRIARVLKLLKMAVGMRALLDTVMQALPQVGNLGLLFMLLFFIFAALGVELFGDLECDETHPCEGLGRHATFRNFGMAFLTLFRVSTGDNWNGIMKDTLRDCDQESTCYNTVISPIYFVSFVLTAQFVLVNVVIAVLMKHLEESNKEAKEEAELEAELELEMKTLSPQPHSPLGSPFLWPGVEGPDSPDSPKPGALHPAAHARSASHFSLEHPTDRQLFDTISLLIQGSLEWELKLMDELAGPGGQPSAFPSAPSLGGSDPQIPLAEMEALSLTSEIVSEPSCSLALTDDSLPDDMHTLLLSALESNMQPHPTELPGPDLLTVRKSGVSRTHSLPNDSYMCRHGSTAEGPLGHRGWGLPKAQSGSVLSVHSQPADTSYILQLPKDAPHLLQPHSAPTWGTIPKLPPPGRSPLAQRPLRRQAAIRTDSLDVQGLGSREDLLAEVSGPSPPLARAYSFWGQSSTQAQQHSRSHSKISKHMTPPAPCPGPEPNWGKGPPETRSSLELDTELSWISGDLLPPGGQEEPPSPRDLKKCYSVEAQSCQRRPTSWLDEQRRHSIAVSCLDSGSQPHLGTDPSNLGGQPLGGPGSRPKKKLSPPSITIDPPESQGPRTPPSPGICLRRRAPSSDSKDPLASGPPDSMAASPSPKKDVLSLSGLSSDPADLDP
Cav3.2, sequence (O95180 whole entry): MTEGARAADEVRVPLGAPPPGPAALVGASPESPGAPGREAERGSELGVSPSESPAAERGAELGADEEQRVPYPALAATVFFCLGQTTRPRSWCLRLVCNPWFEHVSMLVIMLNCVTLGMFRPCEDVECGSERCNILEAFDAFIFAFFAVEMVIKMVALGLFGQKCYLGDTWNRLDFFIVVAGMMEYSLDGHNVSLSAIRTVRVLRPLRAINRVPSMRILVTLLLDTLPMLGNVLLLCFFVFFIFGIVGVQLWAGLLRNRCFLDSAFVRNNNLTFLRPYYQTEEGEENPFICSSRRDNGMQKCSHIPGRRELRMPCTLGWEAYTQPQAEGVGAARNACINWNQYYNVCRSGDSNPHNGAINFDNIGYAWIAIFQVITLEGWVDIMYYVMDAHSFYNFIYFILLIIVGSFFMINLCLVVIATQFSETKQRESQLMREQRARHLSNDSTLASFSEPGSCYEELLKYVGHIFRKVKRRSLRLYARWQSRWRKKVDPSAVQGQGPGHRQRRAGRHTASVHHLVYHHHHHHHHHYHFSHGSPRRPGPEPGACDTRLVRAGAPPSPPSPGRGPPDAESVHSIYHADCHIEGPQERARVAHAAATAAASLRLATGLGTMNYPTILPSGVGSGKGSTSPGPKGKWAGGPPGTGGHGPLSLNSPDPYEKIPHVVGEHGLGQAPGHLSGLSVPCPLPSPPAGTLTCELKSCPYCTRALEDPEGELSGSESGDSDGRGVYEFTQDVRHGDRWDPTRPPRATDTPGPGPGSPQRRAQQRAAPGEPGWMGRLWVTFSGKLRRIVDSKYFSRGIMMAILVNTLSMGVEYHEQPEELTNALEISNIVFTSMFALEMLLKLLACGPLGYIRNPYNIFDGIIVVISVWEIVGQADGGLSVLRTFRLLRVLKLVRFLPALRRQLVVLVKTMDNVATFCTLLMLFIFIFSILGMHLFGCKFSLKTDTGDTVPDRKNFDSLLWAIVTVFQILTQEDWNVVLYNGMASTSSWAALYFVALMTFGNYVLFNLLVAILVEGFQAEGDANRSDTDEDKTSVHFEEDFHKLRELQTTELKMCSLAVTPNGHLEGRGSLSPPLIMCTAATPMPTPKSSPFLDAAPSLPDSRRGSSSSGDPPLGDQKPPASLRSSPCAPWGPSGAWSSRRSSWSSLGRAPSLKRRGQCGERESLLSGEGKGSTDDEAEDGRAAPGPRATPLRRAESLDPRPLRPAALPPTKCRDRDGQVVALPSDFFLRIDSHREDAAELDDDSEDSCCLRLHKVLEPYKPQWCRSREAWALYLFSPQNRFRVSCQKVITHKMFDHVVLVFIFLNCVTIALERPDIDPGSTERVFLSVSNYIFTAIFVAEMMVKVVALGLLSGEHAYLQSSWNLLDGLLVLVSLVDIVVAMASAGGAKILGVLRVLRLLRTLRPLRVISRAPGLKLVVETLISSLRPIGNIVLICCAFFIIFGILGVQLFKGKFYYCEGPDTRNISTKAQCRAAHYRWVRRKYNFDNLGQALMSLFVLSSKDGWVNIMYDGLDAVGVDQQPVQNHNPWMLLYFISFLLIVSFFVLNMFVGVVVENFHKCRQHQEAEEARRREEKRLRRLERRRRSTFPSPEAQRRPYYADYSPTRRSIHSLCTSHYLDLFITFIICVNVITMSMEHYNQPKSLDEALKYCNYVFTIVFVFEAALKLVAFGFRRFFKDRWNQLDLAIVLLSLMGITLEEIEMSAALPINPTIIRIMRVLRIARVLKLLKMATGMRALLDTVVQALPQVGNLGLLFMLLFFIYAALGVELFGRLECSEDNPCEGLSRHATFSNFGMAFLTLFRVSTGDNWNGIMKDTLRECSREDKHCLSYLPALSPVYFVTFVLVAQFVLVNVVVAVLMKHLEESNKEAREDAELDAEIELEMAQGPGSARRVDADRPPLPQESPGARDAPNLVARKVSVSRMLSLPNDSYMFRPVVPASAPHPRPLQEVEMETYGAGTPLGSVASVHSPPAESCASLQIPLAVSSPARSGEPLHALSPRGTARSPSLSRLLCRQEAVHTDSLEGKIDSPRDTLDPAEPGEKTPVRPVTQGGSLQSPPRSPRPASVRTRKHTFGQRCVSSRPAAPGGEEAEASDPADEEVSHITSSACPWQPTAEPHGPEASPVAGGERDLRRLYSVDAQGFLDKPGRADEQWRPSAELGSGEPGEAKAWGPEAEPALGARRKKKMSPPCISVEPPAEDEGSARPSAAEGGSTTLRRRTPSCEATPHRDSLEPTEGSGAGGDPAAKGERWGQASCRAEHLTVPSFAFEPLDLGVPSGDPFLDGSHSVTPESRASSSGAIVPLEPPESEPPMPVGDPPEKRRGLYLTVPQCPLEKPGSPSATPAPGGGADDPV

Compound `Cc1ccc(C)c2[nH]c(CCCN(C)CC[C@@]3(OC(=O)N4CCOCC4)CCc4cc(F)ccc4[C@@H]3C(C)C)nc12` [Example 15, (1S,2S)-2-(2-((3-(4,7-Dimethyl-1H-benzo[d]imidazol-2-yl)propyl)(methyl)amino)ethyl)-6-fluoro-1-isopropyl-1,2,3,4-tetrahydronaphthalen-2-yl morpholine-4-carboxylate] has an EC50 [1] of 4.8 µM, an IC50 (Cav3.2) of 335 nM and an IC50 (Cav3.1) of 139 nM. The IC50 (Cav3.3) was 212 nM.
